Measurements as given in patent publication US20100197650A1, “COMPOSITIONS AND METHODS OF TREATMENT COMPRISING CEFTAROLINE” (FOREST LABORATORIES HOLDINGS LTD., priority 2008, published 2010).
Values after ≈ are worked out from the molar mass of the structure shown. Like-named read-outs stand apart in the source and are kept apart here.

Key:
[1] = system: Staphylococcus aureus; test: MIC, broth microdilution (Example 1); type: cell-based; conditions: Staphylococcus aureus, ATCC29213, S. aureus 0100 (ATCC 29213), FIC control; read-out: MIC
Procedure: (§1) Stock solutions of all antibacterial agents were prepared at 80-fold (80×) the final target concentration in the appropriate solvent and the solution was allowed to stand for 60 minutes. All antibacterial agents were in solution under these conditions. The final drug concentrations in the FIC assay plates were set to bracket the MIC value of each agent for each test organism, unless the strain was totally resistant to the test agent.
(§2) The test organisms were originally received from clinical sources, or from the American Type Culture Collection. Upon receipt, the isolates were streaked onto the appropriate growth medium: Chocolate Agar for H. influenzae, Tryptic Soy Agar II (Becton Dickinson, Sparks, Md.) supplemented with 5% defibrinated sheep blood for streptococci, and unsupplemented Tryptic Soy Agar II for all other organisms. Colonies were harvested from these plates and a cell suspension was prepared in Tryptic Soy Broth (Becton Dickinson) containing cryoprotectant. Aliquots were then frozen at −80° C. On the day prior to assay, the frozen seeds of the organisms to be tested in that session were thawed and streaked for isolation onto the appropriate agar medium plates and incubated overnight at 35° C.
(§3) The test medium for H. influenzae was Haemophilus Test Medium. Streptococci were tested in Mueller Hinton II Broth (Becton Dickinson; Lot 6235472) supplemented with 2% lysed horse blood (Cleveland Scientific, Bath, Ohio; Lot H88621). All other organisms were tested in Mueller Hinton II Broth (Becton Dickinson, Lot 6235472). The broth was prepared at 1.05× normal weight/volume to offset the 5% volume of the drugs in the final test plates.
(§4) In order to select the proper test concentrations for each drug combination, minimal inhibitory concentration (MIC) values were first determined using the broth microdilution method previously described (Clinical and Laboratory Standards Institute. Methods for Dilution Antimicrobial Susceptibility Tests for Bacteria That Grow Aerobically; Approved Standard—Seventh Edition. Clinical and Laboratory Standards Institute document M7-A7 [ISBN 1-56238-587-9]. Clinical and Laboratory Standards Institute, 940 West Valley Road, Suite 1400, Wayne, Pa. 19087-1898 USA, 2006).
(§5) The wells of standard 96-well microdilution plates (Falcon 3918) were filled with 150 μL of 100% DMSO using the Multidrop 384. These plates were used to prepare the drug “mother plates” which provided the serial drug dilutions for the drug combination plates. The Biomek 2000 was used to transfer 150 μl of each stock solution (80×) from the wells in Column 1 of a deep well plate to the corresponding wells in Column 1 of the mother plate and to make seven 2-fold serial dilutions. Two mother plates, one for each drug, were combined to form a “checkerboard” pattern by transfer of equal volumes (using a multi-channel pipette) to the drug combination plate. Row H and Column 8 each contained serial dilutions of one of the agents alone for determination of the MIC.
(§6) Plates were stacked 3 high, covered with a lid on the top plate, placed in plastic bags, and incubated at 35° C. for approximately 20 hours. Following incubation, the microplates were removed from the incubator and viewed from the bottom using a ScienceWare plate viewer. Prepared reading sheets were marked for the MIC of drug 1 (row H), the MIC of drug 2 (column 8) and the wells of the growth-no growth interface.

[2] = system: Streptococcus pneumoniae; test: MIC, broth microdilution (Example 1); type: cell-based
Procedure: as §1, §2, §3, §4, §5, §6

[3] = system: Haemophilus influenzae; test: MIC, broth microdilution (Example 1); type: cell-based; conditions: Haemophilus influenzae, read-out: MIC
Procedure: as §1, §2, §3, §4, §5, §6

[4] = system: Klebsiella pneumoniae; test: MIC, broth microdilution (Example 1); type: cell-based; conditions: Klebsiella pneumoniae, read-out: MIC
Procedure: as §1, §2, §3, §4, §5, §6

[5] = system: Escherichia coli; test: MIC, broth microdilution (Example 1); type: cell-based; conditions: Escherichia coli, read-out: MIC
Procedure: as §1, §2, §3, §4, §5, §6

[6] = system: ESBL-producing Klebsiella pneumoniae; test: Susceptibility testing MIC/MBC, broth microdilution (Example 2); type: cell-based; conditions: Klebsiella pneumoniae; for MBC: read-out: MBC
[7] = system: ESBL-producing E. coli; test: as above; type: cell-based, Escherichia coli; conditions: for MBC / MIC: Escherichia coli; for MBC: read-out: MBC; for MIC: read-out: MIC
[8] = system: Enterococcus faecalis; test: MIC, broth microdilution (Example 1); type: cell-based; conditions: Enterococcus faecalis, ATCC29212, E. faecalis 0101 (ATCC 29212), FIC control; read-out: MIC
Procedure: as §1, §2, §3, §4, §5, §6

## CC1(C)S[C@@H]2[C@H](NC(=O)[C@H](N)c3ccc(O)cc3)C(=O)N2[C@H]1C(=O)O [Amoxicillin]
[1]
  MIC: 4 µg/mL

## CC[C@H]1OC(=O)[C@H](C)[C@@H](O[C@H]2C[C@@](C)(OC)[C@@H](O)[C@H](C)O2)[C@H](C)[C@@H](O[C@@H]2O[C@H](C)C[C@H](N(C)C)[C@H]2O)[C@](C)(O)C[C@@H](C)CN(C)[C@H](C)[C@@H](O)[C@]1(C)O [Azithromycin]
[2]; S. pneumoniae 0877 (PRSP)
  MIC: >32^a^ μg/mL
[2]; Streptococcus pneumoniae, PRSP, S. pneumoniae 0876 (PRSP), read-out: MIC
  MIC: 2 µg/mL
[2]; Streptococcus pneumoniae, PRSP, S. pneumoniae 0877 (PRSP), read-out: MIC
  MIC: > 32 µg/mL
[2]; Streptococcus pneumoniae, S. pneumoniae 0866 (PSSP), read-out: MIC
  MIC: 0.06 µg/mL
[2]; Streptococcus pneumoniae, S. pneumoniae 0869 (PSSP), read-out: MIC
  MIC: 0.06 µg/mL
[3]; H. influenzae 1224
  MIC: 1 µg/mL
[3]; H. influenzae 2797 (BLNAR)
  MIC: 1 µg/mL
[3]; H. influenzae 2798 (BLNAR)
  MIC: 2 µg/mL
[3]; H. influenzae 2799 (BLNAR)
  MIC: 0.25 µg/mL

## C[C@H]1[C@H](NC(=O)/C(=N\OC(C)(C)C(=O)O)c2csc(N)n2)C(=O)N1S(=O)(=O)O [Aztreonam]
[4]; K. pneumoniae 1340
  MIC: 0.12 µg/mL
[4]; K. pneumoniae 1461
  MIC: 0.25 µg/mL
[5]; E. coli 1587
  MIC: 0.25 µg/mL
[5]; E. coli 2273 (ESBL)
  MIC: 16 µg/mL
[6]; 1 K. pneumoniae isolate, read-out: MIC
  MIC: 0.5 µg/mL (≈ 1.15 µM)
[6]; K. pneumonia isolate no. 5427
  MBC: 1 µg/mL (≈ 2.3 µM)
[6]; K. pneumonia isolate no. 5427, read-out: MIC
  MIC: 0.5 µg/mL (≈ 1.15 µM)
[6]; K. pneumonia isolate no. 5436
  MBC: 64 µg/mL (≈ 147 µM)
[6]; K. pneumonia isolate no. 5436, read-out: MIC
  MIC: 64 µg/mL (≈ 147 µM)
[6]; all K. pneumoniae except 1 isolate, read-out: MIC values
  MIC: ≥ 8 µg/mL
[7]; E. coli isolate no. 5401
  MBC: 0.25 µg/mL (≈ 0.574 µM)
  MIC: 0.25 µg/mL (≈ 0.574 µM)
[7]; E. coli isolate no. 5411
  MBC: 32 µg/mL (≈ 73.5 µM)
  MIC: 8 µg/mL (≈ 18.4 µM)

## CO/N=C(\C(=O)N[C@@H]1C(=O)N2C(C(=O)[O-])=C(C[N+]3(C)CCCC3)CS[C@H]12)c1csc(N)n1 [Cefepime]
[7]; E. coli (10) clinical isolates
  MBC range: 0.25 to 512 µg/mL
  MIC range: 0.125 to 256 µg/mL
[7]; E. coli isolate no. 5401
  MBC: 4 µg/mL (≈ 8.32 µM)
  MIC: 4 µg/mL (≈ 8.32 µM)
[7]; E. coli isolate no. 5411
  MBC: 4 µg/mL (≈ 8.32 µM)
  MIC: 2 µg/mL (≈ 4.16 µM)

## O=C(N[C@H](CO)[C@H](O)c1ccc([N+](=O)[O-])cc1)C(Cl)Cl [Chloramphenicol]
[1]
  MIC: 16 µg/mL
[8]
  MIC: 8 µg/mL
